# From US8299048B2, “Hexahydrocyclopentyl[f]indazole sulfonamides and derivatives thereof as selective glucocorticoid receptor modulators” (Merck Sharp & Dohme Corp., priority 2008, dated 2012)
# Target: T1, glucocorticoid receptor (Homo sapiens, UniProt P04150)
# T1 construct: endogenous in cells
# T1 sequence (P04150 1-777): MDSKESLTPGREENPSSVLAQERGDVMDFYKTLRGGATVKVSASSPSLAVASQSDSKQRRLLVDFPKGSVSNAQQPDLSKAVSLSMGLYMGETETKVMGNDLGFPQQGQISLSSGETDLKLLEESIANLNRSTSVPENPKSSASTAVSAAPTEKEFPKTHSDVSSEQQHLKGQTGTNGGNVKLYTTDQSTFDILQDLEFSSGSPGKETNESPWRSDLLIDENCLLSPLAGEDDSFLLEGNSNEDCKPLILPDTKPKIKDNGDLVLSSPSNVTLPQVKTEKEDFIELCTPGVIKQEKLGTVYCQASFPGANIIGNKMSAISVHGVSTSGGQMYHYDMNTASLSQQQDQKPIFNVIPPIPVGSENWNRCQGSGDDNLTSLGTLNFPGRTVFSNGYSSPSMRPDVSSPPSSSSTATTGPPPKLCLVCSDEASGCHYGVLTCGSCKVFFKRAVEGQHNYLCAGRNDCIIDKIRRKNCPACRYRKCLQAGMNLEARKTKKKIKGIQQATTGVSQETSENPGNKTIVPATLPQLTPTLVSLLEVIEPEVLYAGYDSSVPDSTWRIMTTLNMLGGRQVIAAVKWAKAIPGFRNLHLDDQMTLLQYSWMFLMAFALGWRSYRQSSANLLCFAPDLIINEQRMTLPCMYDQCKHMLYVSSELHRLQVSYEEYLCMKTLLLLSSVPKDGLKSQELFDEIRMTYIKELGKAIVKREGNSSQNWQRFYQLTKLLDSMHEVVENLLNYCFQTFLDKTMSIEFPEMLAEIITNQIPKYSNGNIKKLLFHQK
# Experiment: Ligand binding assay (GR BIND)
# In short: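 Cytosol from freeze–thawed cells in TEGM (pH 7.2, 10 mM molybdate) was incubated overnight at 4 °C with compound and [3H]-dexamethasone trace (added as 6 nM solution), 2% EtOH final. Bound ligand was captured on hydroxylapatite, filtered, washed and scintillation counted. Values were calculated with dexamethasone as reference.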
row,Ki [nM],Structure (SMILES)
1,0.8,"C[C@]12Cc3cnn(-c4ccc(F)cc4)c3C=C1CC[C@@H]2CN(CCc1ccccn1)S(=O)(=O)CC(F)(F)F [Example 128, 2,2,2-trifluoro-N-{[(4αR,5S)-1-(4-fluorophenyl)-4α-methyl-1,4,4α,5,6,7-hexahydrocyclopenta[f]indazol-5-yl]methyl}-N-(2-pyridin-2-ylethyl)ethanesulfonamide]"
2,1.8,"C[C@]12Cc3cnn(-c4ccc(F)cc4)c3C=C1CC[C@@H]2CN(CCc1ccccc1F)S(=O)(=O)Cc1ccccc1Cl [Example 107, 1-(2-chlorophenyl)-N-[2-(2-fluorophenyl)ethyl]-N-{[(4αR,5S)-1-(4-fluorophenyl)-4α-methyl-1,4,4α,5,6,7-hexahydrocyclopenta[f]indazol-5-yl]methyl}methanesulfonamide]"
3,1.6,"C[C@]12Cc3cnn(-c4ccc(F)cc4)c3C=C1CC[C@@H]2CN(CCc1ccccn1)S(=O)(=O)CCN1C(=O)c2ccccc2C1=O [Example 152, 2-(1,3-dioxo-1,3-dihydro-2H-isoindol-2-yl)-N-{[(4αR,5S)-1-(4-fluorophenyl)-4α-methyl-1,4,4α,5,6,7-hexahydrocyclopenta[f]indazol-5-yl]methyl}-N-(2-pyridin-2-ylethyl)ethanesulfonamide]"

# The remaining lines, values behind:
row,Structure (SMILES),Ki [nM]
1,"CC(CN(C[C@H]1CCC2=Cc3c(cnn3-c3ccc(F)cc3)C[C@@]21C)S(=O)(=O)CC(F)(F)F)c1cccnc1 (stereo partly drawn) [Example 146, 2,2,2-trifluoro-N-{[(4αR,5S)-1-(4-fluorophenyl)-4α-methyl-1,4,4α,5,6,7-hexahydrocyclopenta[f]indazol-5-yl]methyl}-N-(2-pyridin-3-ylpropyl)ethanesulfonamide]",0.8
2,"C[C@]12Cc3cnn(-c4ccc(F)cc4)c3C=C1CC[C@@H]2CN(CCO)S(=O)(=O)c1ccccc1C(N)=O [Example 117, 2-{[{[(4αR,5S)-1-(4-fluorophenyl)-4α-methyl-1,4,4α,5,6,7-hexahydrocyclopenta[f]indazol-5-yl]methyl}(2-hydroxyethyl)amino]sulfonyl}benzamide]",9.4
3,"C[C@]12Cc3cnn(-c4ccccc4)c3C=C1CC[C@@H]2CN(CCc1ccccc1O)S(=O)(=O)Cc1cccnc1 [Example 141, N-[2-(2-hydroxyphenyl)ethyl]-N-{[(4αR,5S)-4α-methyl-1-phenyl-1,4,4α,5,6,7-hexahydrocyclopenta[f]indazol-5-yl]methyl}-1-pyridin-3-ylmethanesulfonamide]",1.1
4,"C[C@]12Cc3cnn(-c4ccc(F)cc4)c3C=C1CC[C@@H]2CN(CC(O)c1ccccn1)S(=O)(=O)CC(F)(F)F (stereo partly drawn) [Example 142, 2,2,2-trifluoro-N-{[(4αR,5S)-1-(4-fluorophenyl)-4α-methyl-1,4,4α,5,6,7-hexahydrocyclopenta[f]indazol-5-yl]methyl}-N-(2-hydroxy-2-pyridin-2-ylethyl)ethanesulfonamide]",0.9
5,"C[C@]12Cc3cnn(-c4ccc(F)cc4)c3C=C1CC[C@@H]2CN(CC(O)C(F)(F)F)S(=O)(=O)Cc1cccnc1 (stereo partly drawn) [Example 149, N-{[(4αR,5S)-1-(4-fluorophenyl)-4α-methyl-1,4,4α,5,6,7-hexahydrocyclopenta[f]indazol-5-yl]methyl}-1-pyridin-3-yl-N-(3,3,3-trifluoro-2-hydroxypropyl)methanesulfonamide]",1.8
6,"COC(=O)c1ccccc1CCN(C[C@H]1CCC2=Cc3c(cnn3-c3ccc(F)cc3)C[C@@]21C)S(=O)(=O)CC(F)(F)F [Example 159, methyl 2-(2-{{[(4αR,5S)-1-(4-fluorophenyl)-4α-methyl-1,4,4α,5,6,7-hexahydrocyclopenta[f]indazol-5-yl]methyl}[(2,2,2-trifluoroethyl)sulfonyl]amino}ethyl)benzoate]",1.9
